Where a SMILES comes first, the peptide text is derived from it. The star is where a group is joined. Boc = CC(C)(C)OC(=O)*
What was measured:
[1] = system: 2C'3ABCD portion of the HRV polyprotein precursor; assay: In Vitro Translation of HRV RNA (rabbit reticulocyte lysate, autoradiography); format: biochemical, human rhinovirus; settings: for Processing of translated viral polyprotein (autoradiography): inhibitor included in cell-free translation assay
From the text: In a cell-free translation system, when no inhibitor was present, RNA corresponding to the 2C'3ABCD portion of the HRV polypeptide precursor was translated into the various individual proteins of the virus. […]
Complementary DNA derived from the HRV genone and representing the 2C'3ABCD portion of the HRV polyprotein precursor (Lee W, Monroe S S, Reuckert R R (1993) J. Virol 67:211-2122) was inserted into the commercially available pCITE vector (Novagen, 565 Science Dr., Madison, Wis.). The vector is supplied with the Novagen Red Nova® Lysate translation assay kit, which provides a lysate of New Zealand White rabbit reticulocytes along with other reagents, that allows for efficient cell-free synthesis of proteins from exogenous RNA templates.
The pCITE 2C'3ABCD-containing plasmid was used to transform the JM101 cell line (Stratagene, La Jolla, Calif.) which was then grown under standardard conditions ([…], 37° C.) in 2× YT broth with ampicillin. The plasmid was then isolated by standard CsCl banding procedures.
The DNA was linearized by treatign the plasmid with 2 unitsMlu 1 restriction enzyme per μg DNA for 3 hours at 37° C., followed by proteinase K (50 μg/mL) treatment for 30 minutes at 37° C. The mixture was extracted twice with phenol/chloroform/isoamyl alcohol (1:1:1) followed by two extractions with chloroform/isoamyl alcohol (1:1). A 0.1 volume 3M sodium acetate (NaOAc), pH 5.2 and two volumes of 100% ethanol were added before placing at -80° C. for 60 minutes. The supernatant was decanted and the pellet was rinsed with 70% ethanol, dried under vacuum, and then resuspended in 25 μL Tris-EDTA buffer (10 mM Tris, 1 mM EDTA; pH 7.6). […]
The compounds of Formula I were assayed according to the Red Nova protocol for their ability to inhibit translation of the rhinoviral RNA by the reticulocyte lysate. ^3 H-Leucine (5 mCi/mL) was included in the assay mixture so that translation products could be identified by autoradiography when the samples were analyzed by SDS polyacrylamide gel electrophoresis. […]

[2] = system: HRV; assay: Whole Cell Culture Assay of Anti-HRV Activity (Hela cells, XTT); format: cell-based, human rhinovirus; settings: concentration not given
Procedure: A third measure of antiviral activity was performed by determining the effects of selected 3C protease inhibitors of Formula I on HRV infection in cultures of Hela cells.
Commercially available Hela cells are susceptible to HRV infection. The virus enters the cells where it readily replicates and when infection levels become high enough, the Hela cells die. The effect of HRV inhibitors can be measured in Hela cultures by first exposing the cells to HRV and shortly thereafter (before viral infection becomes critical) adding potential inhibitors. Compounds which inhibit 3C protease activity serve to protect the cells from the cytopathic effect of the virus. Comparison of viability in cultures receiving serial dilutions of inhibitor to cultures not receiving any inhibitor allows quantitation of the antiviral effect. Any toxic effect of the inhibitor can also be measured by comparing viability of treated cultures with those cultures which are not infected with the virus.
Viability determinations can be readily made by direct counts of viable cells or by assays representative of viability such as measurement of mitochondrial enzyme activity.
Hela cells were dispersed in a 96-well tissue culture plate at 20,000 cells per well with minimum essential medium containing Earl's balanced salt solution, 1% fetal bovine serum, penicillin (150 units/mL) and streptomycin (150 μg/mL). […]

| Compound | Processing of translated viral polyprotein (autoradiography) [1] | Translation Assay (toxic) ([1]; at the dose tested (dose not given)) | Whole Cell Antiviral Testing (toxic) [2] |
| --- | --- | --- | --- |
| CC(C)C[C@H](NC(=O)[C@@H](NC(=O)OC(C)(C)C)C(C)C)C(=O)N[C@@H](Cc1ccccc1)C(=O)N[C@H](C=O)CCC(N)=O [Example 5, N-(t-butoxycarbonyl-L-valinyl-L-leucinyl-L-phenylalanyl)-L-gluatamine aldehyde] (Boc-VLFQ-aldehyde) | single unprocessed band |  |  |
| CC(=O)N[C@@H](CC(C)C)C(=O)N[C@@H](Cc1ccccc1)C(=O)N[C@H](C=O)CCC(N)=O [Example 6, N-(Acetyl-L-leucinyl-L-phenylalanyl)-L-glutamine aldehyde] (Ac-Leu-Phe-Gln-aldehyde) | single unprocessed band |  |  |
| CC(C)C[C@H](N)C(=O)N[C@@H](Cc1ccccc1)C(=O)N[C@H](C=O)CCC(N)=O [Example 7, N-(L-leucinyl-L-phenylalanyl)-L-glutamine aldehyde] (H-Leu-Phe-Gln-aldehyde) |  | toxic | toxic |
